Test [1] has as its system PANC-1. In words: Antiproliferative activity against human PANC-1 cells assessed as inhibition of cell growth incubated for 72 hrs by MTT assay. The settings on record: PANC-1, 72 h. It counts as functional, cell-based.
Test [2] relates to PANC-1. The experiment in a line: Antiproliferative activity against human PANC-1 cells assessed as inhibition of cell growth at 20 to 100 uM incubated for 72 hrs by MTT assay. It counts as functional, cell-based. The settings on record: dose 20-100 µM.

Each structure is given as a SMILES string. Active and inactive are the calls of the source. No cut-off for these calls is given here.

As a reminder, the IC50 is the concentration that gives 50% inhibition.

As to `COC(=O)[C@H](NC(=O)[C@H](OC(=O)[C@@H](NC(=O)[C@H](C)OC(=O)[C@H](NC(=O)[C@H](OC(=O)[C@@H](NC(=O)[C@H](C)OC(=O)[C@H](NC(=O)[C@H](OC(=O)[C@@H](NC(=O)[C@H](C)O)C(C)C)C(C)C)C(C)C)C(C)C)C(C)C)C(C)C)C(C)C)C(C)C)C(C)C`, the half-maximal inhibitory concentration (IC50) with PANC-1 [1] amounted to 1.7 µM.

Regarding `CC(C)[C@H](NC(=O)[C@H](C)OC(=O)[C@H](NC(=O)[C@H](OC(=O)[C@@H](NC(=O)[C@H](C)OC(=O)[C@H](NC(=O)[C@H](OC(=O)[C@@H](NC(=O)[C@H](C)OC(=O)[C@@H](NC(=O)[C@H](C)O)C(C)C)C(C)C)C(C)C)C(C)C)C(C)C)C(C)C)C(C)C)C(=O)O`, the result in the test on PANC-1 [2] was inactive.

Consider `CC(C)[C@H](NC(=O)[C@H](C)OC(=O)[C@H](NC(=O)[C@H](OC(=O)[C@@H](NC(=O)[C@H](C)OC(=O)[C@H](NC(=O)[C@H](OC(=O)[C@@H](NC(=O)[C@H](C)O)C(C)C)C(C)C)C(C)C)C(C)C)C(C)C)C(C)C)C(=O)O`, for which the result with PANC-1 [2] was inactive.

As for `CC(C)[C@H](NC(=O)[C@H](C)O)C(=O)O[C@@H](C(=O)N[C@@H](C(=O)O[C@@H](C)C(=O)N[C@H](C(=O)O[C@@H](C(=O)N[C@@H](C(=O)O[C@@H](C)C(=O)N[C@H](C(=O)O[C@@H](C(=O)N[C@@H](C(=O)O)C(C)C)C(C)C)C(C)C)C(C)C)C(C)C)C(C)C)C(C)C)C(C)C`, in the test with PANC-1 [1], the IC50 stood at 1.2 µM.

These data come from ChEMBL document CHEMBL5335832, “Cavomycins A-C, Linear Oligomer Depsipeptides from an Annelid-Associated Streptomyces cavourensis” (J Nat Prod, 2024).
